{"source": "patent US8404442B2", "about": "“Methods for identification of bone anabolic agents” (New York University, priority 2009, dated 2013)", "key": {"[1]": {"test_system": "Sox2-depleted osteoblasts", "experiment": "Rescue of colony forming ability of Sox2-depleted osteoblasts", "assay_type": "cell-based, mouse", "details": "10 μM SB431542", "experimental": "For colony formation assay, 0.1×10^6 cells were plated per well in a cluster-6 well plate for 24 hours. The next day, the cells were infected with a retrovirus either encoding eGFP (MSCV-eGFP) or CRE (MSCV-CRE-eGFP) at an MOI of 10, in the presence of 8 μg/ml polybrene. Twenty-four (24) hours after infection, fresh medium was added to the plate and the cells were incubated for an additional 48 hours (72 hours total from the start of infection). The infected cells were then trypsinized and re-plated at a density of 1000 cells/well in a cluster-6 well plate. The plated were incubated for 7-10 days. Green colonies were visualized and counted under a fluorescence microscope. Colonies were fixed in 20% methanol for 15 minutes at room temperature, and counted after staining with 0.5% crystal violet in 20% methanol. We have developed a 96-well format, cell-based screen using two Sox2 foxed cell lines (F/F and F/-). […] The CellTiter-Blue® Cell Viability Assay is a fluorescence-based assay for measuring cell viability, and has an excellent Z′ factor^1. […] After one hour of incubation with the reagent, fluorescence was read using a Wallac Plate Reader (Perkinelmer, Waltham, Mass.). Z′ factor and z score for each plate was calculated for each cell line at different cell plating concentrations as described (28, 29). […]"}, "iPSCs": {"test_system": "iPSCs", "details": "refs (7,32); cited from earlier work"}}, "data": [{"smiles": "NC(=O)c1ccc(-c2nc(-c3ccc4c(c3)OCO4)c(-c3ccccn3)[nH]2)cc1", "note": "[SB431542]", "values": [{"measurement": "rescue of loss of colony forming ability", "setting": "[1]", "result": "able to rescue to loss of colony forming ability"}, {"measurement": "bypass of the requirement of Sox2 in reprogramming", "setting": "iPSCs", "result": "bypass the requirement of Sox2 in the reprogramming of iPSCs"}]}]}
